20 molecules from patent US20240287025A1, “TETRAHYDROQUINOLINE (THQ) COUMPOUNDS” (Centre National de la Recherche Scientifique, priority 2021, published 2024) can be followed below.

Experiment [1] concerns the target Brd4 BD1 (Homo sapiens (Human), UniProt O60885). As to the kind of experiment: HTRF evaluation of bromodomain inhibitors, Brd4 BD1. The class given is binding. The conditions noted are these: H4ac4 peptide 50 nM, 4 h at 4° C. Here is the method: (§1) HTRF reagents and buffers were purchased from Cisbio Bioassays. The assay used a terbium (Ill) cryptate donor reagent conjugated to an anti-GST antibody (MAb anti-GST-Tb; GSTTLA), a streptavidin-conjugated acceptor reagent (streptavidin-d2) and Cisbio proprietary buffers (EPlgeneous Binding Domain Diluent and Detection buffer, respectively). GST-tagged bromodomains (BDs) were expressed in E. coli and purified using standard procedures. Incubation of GST-tagged BDs with biotinylated acetylated H4 peptide (H4K5acK8acK12acK16ac, here named H4ac4) brings the donor and acceptor into close proximity and allows for a FRET reaction. GST-tagged proteins in 25 mM Hepes pH 7.5, 150 mM NaCl, 0.5 mM DTT were assayed at a final concentration of 5 nM. Biotinylated H4ac4 peptides were used at a final concentration of 50, 600 nM in assays involving Brd4 BD1, Brd4 BD2, respectively. The antibody-conjugated donor was used at 0.5 nM and the streptavidin-conjugated acceptor was used at ⅛ of the H4ac4 peptide concentration. Inhibitors were tested by performing an eleven-point dilution series with a maximal final concentration of […]. These concentrations allowed a fixed DMSO concentration at 0.2%, critical for a Z′ factor ≥0.8. Components were incubated at 4° C. for 4 h (BD1) or for 24 h (BD2). Experiments were performed in 384-well white plates (Greiner ref. 781080) and analyzed in a ClarioStar plate reader (BMG LABTECH, excitation at 330 nm and emission at 620 and 665 nm, corresponding to the donor and acceptor emission peaks, respectively; the 665/620 ratio is used to calculate the specific HTRF signal) with an integration delay of 60 μs and an integration time of 400 μs.

Experiment [2] has as its target Brd4 BD2 (Homo sapiens (Human), UniProt O60885). The experiment is described as follows: HTRF evaluation of bromodomain inhibitors, Brd4 BD2. The class given is binding. The following applies: for IC50: HTRF, H4ac4 peptide 600 nM, 24 h at 4° C.; for Selectivity BD2/BD1: ratio of the BD1 and BD2 IC50. As for the experimental part: as §1

Consider `C#CCOCCOCCOCCOCCOCCOCc1cn([C@@H]2c3cc(C(=O)OC)ccc3N(C(C)=O)[C@@H](CC)[C@H]2C)nn1` [XT, Methyl-(2S,3R,4S)-4-(4-(2,5,8,11,14,17-hexaoxaicos-19-yn-1-yl)-1H-1,2,3-triazol-1-yl)-1-acetyl-2-ethyl-3-methyl-1,2,3,4-tetrahydroquinoline-6-carboxylate], for which the IC50 in experiment [1] was around 35000 nM. Also, in experiment [2], the IC50 is 2040 nM and the “Selectivity BD2/BD1” value came to 17.2.
Taken in the same sequence, the figures for `CC[C@H]1[C@@H](C)C(n2cc(COCCOCc3cn(C4c5cc(C(=O)OC)ccc5N(C(C)=O)[C@@H](CC)[C@H]4C)nn3)nn2)c2cc(C(=O)OC)ccc2N1C(C)=O` (stereo partly drawn) [XU, Dimethyl-4,4′-(((ethane-1,2-diylbis(oxy))bis(methylene))bis(1H-1,2,3-triazole-4,1-diyl))(2S,2'S,3R,3′R,4S,4'S)-bis(1-acetyl-2-ethyl-3-methyl-1,2,3,4-tetrahydroquinoline-6-carboxylate)] were 247 nM, 57 nM and 4.3.
For `CC[C@H]1[C@@H](C)[C@H](n2cc(COCCOCCOCc3cn(C4c5cc(C(=O)OC)ccc5N(C(C)=O)[C@@H](CC)[C@H]4C)nn3)nn2)c2cc(C(=O)OC)ccc2N1C(C)=O` (stereo partly drawn) [XV, Dimethyl-4,4′-((((oxybis(ethane-2,1-diyl))bis(oxy))bis(methylene))bis(1H-1,2,3-triazole-4,1-diyl))(2S,2'S,3R,3′R,4S,4'S)-bis(1-acetyl-2-ethyl-3-methyl-1,2,3,4-tetrahydroquinoline-6-carboxylate)], in that order: 1670 nM, 2430 nM and 0.7.
For `CC[C@H]1[C@@H](C)[C@H](n2cc(COCCOCCOCCOCc3cn(C4c5cc(C(=O)OC)ccc5N(C(C)=O)[C@@H](CC)[C@H]4C)nn3)nn2)c2cc(C(=O)OC)ccc2N1C(C)=O` (stereo partly drawn) [XW, Dimethyl-4,4′-((2,5,8,11-tetraoxadodecane-1,12-diyl)bis(1H-1,2,3-triazole-4,1-diyl))(2S,2′S,3R,3′R,4S,4′S)-bis(1-acetyl-2-ethyl-3-methyl-1,2,3,4-tetrahydroquinoline-6-carboxylate)], in that order: 1850 nM, 95.4 nM and 19.4.
For the molecule `CC[C@H]1[C@@H](C)[C@H](n2cc(COCCOCCOCCOCCOCc3cn(C4c5cc(C(=O)OC)ccc5N(C(C)=O)[C@@H](CC)[C@H]4C)nn3)nn2)c2cc(C(=O)OC)ccc2N1C(C)=O` (stereo partly drawn) [XX, Dimethyl-4,4′-((2,5,8,11,14-pentaoxapentadecane-1,15-diyl)bis(1H-1,2,3-triazole-4,1-diyl))(2S,2'S,3R,3′R,4S,4'S)-bis(1-acetyl-2-ethyl-3-methyl-1,2,3,4-tetrahydroquinoline-6-carboxylate)], the results for the IC50 in experiment [1] and in experiment [2] were 1470 nM and 129 nM, respectively. Further, the “Selectivity BD2/BD1” value in experiment [2] is recorded as 11.5.
For `CC[C@H]1[C@@H](C)C(n2cc(COCCOCCOCCOCCOCCOCc3cn(C4c5cc(C(=O)OC)ccc5N(C(C)=O)[C@@H](CC)[C@H]4C)nn3)nn2)c2cc(C(=O)OC)ccc2N1C(C)=O` (stereo partly drawn) [XY, Dimethyl-4,4′-((2,5,8,11,14,17-hexaoxaoctadecane-1,18-diyl)bis(1H-1,2,3-triazole-4,1-diyl))(2S,2'S,3R,3′R,4S,4'S)-bis(1-acetyl-2-ethyl-3-methyl-1,2,3,4-tetrahydroquinoline-6-carboxylate)], in that order: 1560 nM, 95 nM and 16.4.
For `CC[C@H]1[C@@H](C)[C@H](N=[N+]=[N-])c2cc(C(F)(F)F)ccc2N1C(C)=O` [YB, 1-((2S,3R,4S)-4-azido-2-ethyl-3-methyl-6-(trifluoromethyl)-3,4-dihydroquinolin-1(2H)-yl)ethan-1-one], in that order: 67000 nM, 7570 nM and 8.8.
Molecule `CCCCCc1cn([C@@H]2c3cc(C(F)(F)F)ccc3N(C(C)=O)[C@@H](CC)[C@H]2C)nn1` [YD, 1-((2S,3R,4S)-2-ethyl-3-methyl-4-(4-pentyl-1H-1,2,3-triazol-1-yl)-6-(trifluoromethyl)-3,4-dihydroquinolin-1(2H)-yl)ethan-1-one] returned an IC50 in experiment [1] of 41800 nM. In addition, in experiment [2], the midpoint of inhibition, the IC50, lay at 5710 nM and the “Selectivity BD2/BD1” value came to 7.3.
For `CC[C@H]1[C@@H](C)[C@H](n2cc(COCCOCC#Cc3cccc4c3CN(C3CCC(=O)NC3=O)C4=O)nn2)c2cc(C(=O)OC)ccc2N1C(C)=O` (stereo partly drawn) [YE, Methyl-(2S,3R,4S)-1-acetyl-4-(4-((2-((3-(2-(2,6-dioxopiperidin-3-yl)-1-oxoisoindolin-4-yl)prop-2-yn-1-yl)oxy)ethoxy)methyl)-1H-1,2,3-triazol-1-yl)-2-ethyl-3-methyl-1,2,3,4-tetrahydroquinoline-6-carboxylate], in that order: 7870 nM, 486 nM and 16.2.
For `CC[C@H]1[C@@H](C)[C@H](n2cc(COCCOCCOCCOCC#Cc3cccc4c3CN(C3CCC(=O)NC3=O)C4=O)nn2)c2cc(C(=O)OC)ccc2N1C(C)=O` (stereo partly drawn) [YF, Methyl-(2S,3R,4S)-1-acetyl-4-(4-(14-(2-(2,6-dioxopiperidin-3-yl)-1-oxoisoindolin-4-yl)-2,5,8,11-tetraoxatetradec-13-yn-1-yl)-1H-1,2,3-triazol-1-yl)-2-ethyl-3-methyl-1,2,3,4-tetrahydroquinoline-6-carboxylate], in that order: 17000 nM, 1330 nM and 12.7.
In the case of `CC[C@H]1[C@@H](C)[C@H](n2cc(COCCOCCOCCOCCOCCOCC#Cc3cccc4c3CN(C3CCC(=O)NC3=O)C4=O)nn2)c2cc(C(=O)OC)ccc2N1C(C)=O` (stereo partly drawn) [YG, Methyl-(2S,3R,4S)-1-acetyl-4-(4-(20-(2-(2,6-dioxopiperidin-3-yl)-1-oxoisoindolin-4-yl)-2,5,8,11,14,17-hexaoxaicos-19-yn-1-yl)-1H-1,2,3-triazol-1-yl)-2-ethyl-3-methyl-1,2,3,4-tetrahydroquinoline-6-carboxylate], the values for the IC50 in experiment [1] and in experiment [2] were above 20000 nM and 1360 nM, respectively.
`CC[C@H]1[C@@H](C)[C@H](n2nnc3c2CCC2C(CO)C2CC3)c2cc(C(=O)OC)ccc2N1C(C)=O` (stereo partly drawn) [YI, Methyl-(2S,3R,4S)-1-acetyl-2-ethyl-4-(6-(hydroxymethyl)-5,5a,6,6a,7,8-hexahydrocyclopropa[5,6]cycloocta[1,2-d][1,2,3]triazol-1(4H)-yl)-3-methyl-1,2,3,4-tetrahydroquinoline-6-carboxylate]: in experiment [1], the IC50 turned out to be 33600 nM. Further, in experiment [2], inhibition was half-maximal at 798 nM (IC50) and the “Selectivity BD2/BD1” value is on record as 42.1.
With `C=CCCCC(=O)Nc1ccc(-c2ccc3c(c2)[C@H](N=[N+]=[N-])[C@@H](C)[C@@H](CC)N3C(C)=O)cc1` [ent-XC], half-maximal inhibition in experiment [1] (IC50) required 22400 nM. Moreover, in experiment [2], the IC50 is 4430 nM and the “Selectivity BD2/BD1” value came out at 5.1.
Taken in the same sequence, the figures for `C=CCCCC(=O)Nc1ccc(-c2ccc3c(c2)[C@H](n2cc(-c4ccccc4)nn2)[C@@H](C)[C@@H](CC)N3C(C)=O)cc1` [ent-XD] were 2300 nM, 677 nM and 3.4.
On to `C=CCCCC(=O)Nc1ccc(-c2ccc3c(c2)[C@H](n2cc(CCCCC)nn2)[C@@H](C)[C@@H](CC)N3C(C)=O)cc1` [ent-XE], for which the half-inhibitory concentration (IC50) in experiment [1] and in experiment [2] was above 100000 nM in each case.
`CCCCCc1cn([C@H]2c3cc(C(=O)OC)ccc3N(C(C)=O)[C@H](CC)[C@@H]2C)nn1` [ent-XF] returned an IC50 in experiment [1] of 6300 nM. In experiment [2], the IC50 was determined as 8330 nM and the “Selectivity BD2/BD1” value is recorded as 0.8.
For `C=CCCCC(=O)Nc1ccc(-c2ccc3c(c2)[C@H](NC(=O)OC(C)C)[C@@H](C)[C@@H](CC)N3C(C)=O)cc1` [ent-XI], in that order: 5740 nM, 2940 nM and 2.0.
Take `CC[C@@H]1[C@H](C)[C@@H](NC(=O)OC(C)C)c2cc(C(=O)OC)ccc2N1C(C)=O` [ent-XJ]: the IC50 in experiment [1] is above 100000 nM; in experiment [2], 17700 nM.
With `C=CCCCC(=O)Nc1ccc(-c2ccc3c(c2)[C@H](Nc2ncc(Cl)cn2)[C@@H](C)[C@@H](CC)N3C(C)=O)cc1` [ent-XK], the IC50 in experiment [1] was 6090 nM; in experiment [2], 2020 nM. Besides, the “Selectivity BD2/BD1” value in experiment [2] came out at 3.0.
Turning to `CC[C@@H]1[C@H](C)[C@@H](Nc2ncc(Cl)cn2)c2cc(C(=O)OC)ccc2N1C(C)=O` [ent-XL], the 50% inhibitory concentration (IC50) was above 100000 nM in experiment [1] and 7440 nM in experiment [2].
